Here are results for 22 compounds from paper PMC9102953, “New Derivatives of 5-Substituted Uracils: Potential Agents with a Wide Spectrum of Biological Activity” (Molecules, 2022).

The term melting point denotes the temperature of the solid-liquid transition. What is called EC50 is the concentration giving half of the maximal effect.

Data set [1] has as its system respiratory syncytial virus (RSV) strain A Long. The experiment in a line: microbe, parasite or virus in culture. Format: cell-based. The note with it: for EC50: human respiratory syncytial virus, HEL 299, read-out: EC50 (μM) RSV A Long, HEL 299.
Data set [2] in a line: in vitro. The note with it: human.
Data set [3] has as its system HCoV-OC43. Description: Antiviral cytopathicity assay, HCoV-OC43 in HEL 299 cells. Format: cell-based. On the technique in general: Cytopathic effects are the visible damage that an infection or toxin causes in cultured cells.
Data set [4] is described as follows: in vitro. To be noted: human. This is another data set of the same source.
Data set [5] deals with yellow fever virus (YFV) strain 17 D. Description: microbe, parasite or virus in culture. Format: cell-based. To be noted: for EC50: Yellow fever virus, Huh-7, read-out: EC50 (μM) YFV 17D, Huh7.
A short description of data set [6]: in vitro. The note with it: dog.
Where [7] appears, read: Betacoronavirus 1, OC43, HEL 299, read-out: EC50 (μM) HCoV-OC43, HEL 299.
The mark [8] stands for this setting: Betacoronavirus 1, OC43, HEL 299 cells, reduction of virus-induced cytopathicity by 50%, read-out: EC50 (μM) HCoV-OC43, HEL 299.

Molecules are shown by their SMILES. Read-outs that look alike come from different tables or passages of the source.

`O=c1[nH]cc(N2CCc3ccccc3C2)c(=O)[nH]1` showed a melting point of 311 to 312 °C.

Turning to `O=c1[nH]c(=O)n(C2C=CC(O)C2)cc1N1CCCCCC1` (racemic) [(±)-3a, (±)-1-(4′-Hydroxycyclopent-2′-en-1′-yl)-5-(azepan-1″-yl)uracil], the 50% effective concentration (EC50) in data set [1], in data set [3] (setting [7]) and in data set [5] was above 100 µM each time. Further, the CC50 in data set [2], in data set [4] and in data set [6] was above 100 µM each time.

With `O=c1[nH]c(=O)n(C2C=CC(O)C2)cc1N1CCN(c2ccccc2)CC1` (racemic) [(±)-3b, (±)-1-(4′-Hydroxycyclopent-2′-en-1′-yl)-5-(4″-phenylpiperazin-1″-yl)uracil], the EC50 in data set [1], in data set [3] (setting [7]) and in data set [5] was above 100 µM throughout. The CC50 in data set [2], in data set [4] and in data set [6] was above 100 µM each time.

For the compound `CCCCCCCc1ccc(Nc2cn(C3C=CC(O)C3)c(=O)[nH]c2=O)cc1` (racemic) [(±)-3f, (±)-4′-Hydroxycyclopent-2′-en-1′-yl)-5-((4′′-heptylphenyl)amino)uracil], the EC50 in data set [1] was above 100 µM; in data set [3] (setting [7]), 22.4 µM; in data set [5], above 100 µM. Further, the values for the CC50 in data set [2], in data set [4] and in data set [6] were above 100 µM, above 100 µM and 70.4 µM, respectively. For the same compound, the “biological activity against HCoV OC43 (in words)” value (from here on “biological activity”) in data set [3] is recorded as “moderate biological activity”.

Take `CC(C)c1ccc(Nc2cn(C3C=CC(O)C3)c(=O)[nH]c2=O)cc1` (racemic) [(±)-3g, (±)-1-(4′-Hydroxycyclopent-2′-en-1′-yl)-5-((4″-isopropylphenyl)amino)uracil]: the EC50 in data set [1], in data set [3] (setting [7]) and in data set [5] was above 100 µM in each case. For the same compound, the CC50 in data set [2], in data set [4] and in data set [6] was above 100 µM each time.

Consider `CCCCCCCOc1ccc(Nc2cn(C3C=CC(O)C3)c(=O)[nH]c2=O)cc1` (racemic) [(±)-3i, (±)-1-(4′-Hydroxycyclopent-2′-en-1′-yl)-5-((4″-(heptyloxy)phenyl)amino)uracil], for which the EC50 was above 100 µM in data set [1], 36.8 µM in data set [3] (setting [7]) and above 100 µM in data set [5]. Also, the “biological activity” value in data set [3] is “moderate biological activity”. Further, the CC50 in data set [6] came out at 34 µM.

With `O=c1c(N2CCCCCC2)cn(C2C=CC(O)C2)c(=O)n1C1C=CC(O)C1` (racemic) [(±)-4a, (±)-1-(4′-hydroxycyclopent-2′-en-1′-yl)-3-(4‴-hydroxycyclopent-2‴-en-1‴-yl)-5-(azepan-1″-yl)uracil], the EC50 in data set [1], in data set [3] (setting [7]) and in data set [5] was above 100 µM in each case. For the same compound, the CC50 in data set [2], in data set [4] and in data set [6] was above 100 µM in each case.

For the compound `O=c1c(N2CCN(c3ccccc3)CC2)cn(C2C=CC(O)C2)c(=O)n1C1C=CC(O)C1` (racemic) [(±)-4b, (±)-1-(4′-hydroxycyclopent-2′-en-1′-yl)-3-(4‴-hydroxycyclopent-2‴-en-1‴-yl)-5-(4″-phenylpiperazin-1″-yl)uracil], the EC50 in data set [1], in data set [3] (setting [7]) and in data set [5] was above 100 µM each time. Besides, the CC50 in data set [2], in data set [4] and in data set [6] was above 100 µM in each case.

With `CCCCCCc1ccc(Nc2cn(C3C=CC(O)C3)c(=O)n(C3C=CC(O)C3)c2=O)cc1` (racemic) [(±)-4d, (±)-1-(4′-hydroxycyclopent-2′-en-1′-yl)-3-(4‴-hydroxycyclopent-2‴-en-1‴-yl)-5-(-((4″-hexylphenyl)amino)uracil], the EC50 in data set [1] is above 100 µM; in data set [3] (setting [7]), 28.7 µM; in data set [5], above 100 µM. The CC50 in data set [2] is above 100 µM; in data set [4] it was above 100 µM; in data set [6], 51.2 µM. In addition, the “biological activity” value in data set [3] is listed as “moderate biological activity”.

On to `CCCCCCCc1ccc(Nc2cn(C3C=CC(O)C3)c(=O)n(C3C=CC(O)C3)c2=O)cc1` (racemic) [(±)-4f, (±)-1-(4′-hydroxycyclopent-2′-en-1′-yl)-3-(4‴-hydroxycyclopent-2‴-en-1‴-yl)-5-(-((4″-heptylphenyl)amino)uracil], for which the EC50 in data set [1], in data set [3] (setting [7]) and in data set [5] was above 100 µM each time. Besides, the CC50 in data set [2], in data set [4] and in data set [6] was above 100 µM throughout.

In the case of `CCCCOc1ccc(Oc2cn(C3C=CC(O)C3)c(=O)[nH]c2=O)cc1` (racemic) [(±)-10b, (±)-1-(4′-Hydroxycyclopent-2′-en-1′-yl)-5-(4″-butoxyphenoxy)uracil], the EC50 in data set [1], in data set [3] (setting [7]) and in data set [5] was above 100 µM throughout. Besides, the CC50 in data set [2], in data set [4] and in data set [6] was above 100 µM each time.

As to `O=c1[nH]c(=O)n(C2C=CC(O)C2)cc1Oc1ccc(Cl)cc1` (racemic) [(±)-10c, (±)-1-(4′-Hydroxycyclopent-2′-en-1′-yl)-5-(4″-chlorophenoxy)uracil], the EC50 in data set [1], in data set [3] (setting [7]) and in data set [5] was above 100 µM each time. In addition, the CC50 in data set [2], in data set [4] and in data set [6] was above 100 µM each time.

On to `CC(C)(C)c1ccc(Oc2cn(C3C=CC(O)C3)c(=O)[nH]c2=O)cc1` (racemic) [(±)-10d, (±)-1-(4′-Hydroxycyclopent-2′-en-1′-yl)-5-(4″-(tert-butyl)phenoxy)uracil], for which the EC50 in data set [1], in data set [3] (setting [7]) and in data set [5] was above 100 µM in each case. In addition, the CC50 in data set [2], in data set [4] and in data set [6] was above 100 µM throughout.

Consider `Cc1cc(C)cc(Oc2cn(C3C=CC(O)C3)c(=O)n(C3C=CC(O)C3)c2=O)c1` (racemic) [(±)-11a, (±)-1-(4′-hydroxycyclopent-2′-en-1′-yl)-3-(4‴-hydroxycyclopent-2‴-en-1‴-yl)-5-(3″,5″-dimethylphenoxy)uracil], for which the “inhibition of respiratory syncytial virus RSV (strain A Long) (in words)” value in data set [1] is on record as “inhibited”. In addition, the results for the EC50 in data set [1], in data set [3] (setting [7]) and in data set [5] were 28.7 µM, 29.8 µM and above 100 µM, respectively. The “biological activity” value in data set [3] is on record as “moderate biological activity”. In addition, the CC50 in data set [6] stood at 39.3 µM.

On to `CC(C)(C)c1ccc(Oc2cn(C3C=CC(O)C3)c(=O)n(C3C=CC(O)C3)c2=O)cc1` (racemic) [(±)-11d, (±)-1-(4′-hydroxycyclopent-2′-en-1′-yl)-3-(4‴-hydroxycyclopent-2‴-en-1‴-yl)-5-(4″-(tert-butyl)phenoxy)uracil], for which the values for the EC50 in data set [1], in data set [3] (setting [7]) and in data set [5] were above 100 µM, above 100 µM and 47.9 µM, respectively. Further, the “activity against yellow fever virus YFV (strain 17D) (in words)” value in data set [5] was “demonstrated activity”. For the same compound, the CC50 in data set [6] came out at 40.3 µM.

Take `O=c1[nH]cc(N2CCCCCC2)c(=O)[nH]1` [Compound 2a, 5-(Azepan-1-yl)uracil]: the EC50 in data set [1], in data set [3] (setting [8]) and in data set [5] was above 100 µM in each case. The CC50 in data set [2], in data set [4] and in data set [6] was above 100 µM throughout.

The compound `O=c1[nH]cc(N2CCN(c3ccccc3)CC2)c(=O)[nH]1` [Compound 2b, 5-(4-Phenylpiperazin-1-yl)uracil] yielded a melting point of 352 to 354.5 °C. The EC50 in data set [1] is above 100 µM. The compound also registered a CC50 in data set [2] above 100 µM. In addition, in data set [3] (setting [8]), the EC50 is above 100 µM. In addition, the CC50 in data set [4] is above 100 µM. In data set [5], the EC50 was above 100 µM. Besides, the CC50 in data set [6] is above 100 µM.

As for `CCCCCCc1ccc(Nc2c[nH]c(=O)[nH]c2=O)cc1` [Compound 2d, 5-((4′-Hexylphenyl)amino)uracil], the melting point is 332 to 333 °C. In addition, the EC50 in data set [1] is above 100 µM. The compound also registered a CC50 in data set [2] above 100 µM. The EC50 in data set [3] (setting [8]) was above 100 µM. Also, the CC50 in data set [4] was above 100 µM. Further, the EC50 in data set [5] was above 100 µM. The compound further showed a CC50 in data set [6] above 100 µM.

The compound `CC(C)(C)c1ccc(Nc2c[nH]c(=O)[nH]c2=O)cc1` [Compound 2e, 5-((4′-tert-Butylphenyl)amino)uracil] displayed a melting point of 354.5 to 356.5 °C. Moreover, the EC50 in data set [1] is above 100 µM. In addition, in data set [2], the CC50 was above 100 µM. Moreover, the EC50 in data set [3] (setting [8]) was above 100 µM. Moreover, the CC50 in data set [4] was above 100 µM. For the same compound, in data set [5], the EC50 was above 100 µM. In data set [6], this compound returned a CC50 above 100 µM.

`Cc1cc(C)cc(Oc2c[nH]c(=O)[nH]c2=O)c1` [Compound 5a, 5-(3,5-Dimethylphenoxy)uracil] came in with a melting point of 293 to 295 °C. Besides, the concentration giving a half-maximal response (EC50) in data set [1] was above 100 µM. The CC50 in data set [2] is above 100 µM. For the same compound, the EC50 in data set [3] (setting [8]) was above 100 µM. For the same compound, the CC50 in data set [4] is above 100 µM. In addition, the EC50 in data set [5] is above 100 µM. This compound also registered a CC50 in data set [6] above 100 µM.

As for `CCCCOc1ccc(Oc2c[nH]c(=O)[nH]c2=O)cc1` [Compound 5b, 5-(4-Butoxyphenoxy)uracil], the melting point was 271 to 274 °C. Further, in data set [1], the EC50 was above 100 µM. Also, the CC50 in data set [2] was above 100 µM. The EC50 in data set [3] (setting [8]) is above 100 µM. Also, in data set [4], the CC50 was above 100 µM. The EC50 in data set [5] was above 100 µM. The compound further came in with a CC50 in data set [6] above 100 µM.

On to `CCC(CC)COC(=O)[C@H](C)N[P@](=O)(OC[C@H]1O[C@@](C#N)(c2ccc3c(N)ncnn23)[C@H](O)[C@@H]1O)Oc1ccccc1` [Remdesivir, reference compound], for which the EC50 in data set [1] came out at 0.01 µM; in data set [3] (setting [7]) it was 0.03 µM. For the same compound, the CC50 in data set [2] and in data set [4] was above 10 µM throughout.
